Reference: ChEMBL document CHEMBL4507282, “Data for DCP probe BI-1950” (2021)

Legend:
[1] = biological target: Tyrosine-protein kinase ABL1 (Homo sapiens) (UniProt P00519); details: Compound concentration 1000.0 nM
[2] = biological target: Activin receptor type-1 (Homo sapiens) (UniProt Q04771); details: Compound concentration 1000.0 nM
[3] = biological target: Activin receptor type-1-like (Homo sapiens) (UniProt P37023); details: Compound concentration 1000.0 nM
[4] = biological target: Tyrosine-protein kinase receptor UFO (Homo sapiens) (UniProt P30530); details: Compound concentration 1000.0 nM
[5] = biological target: Serine/threonine-protein kinase B-raf (Homo sapiens) (UniProt P15056); details: Compound concentration 1000.0 nM
[6] = biological target: Tyrosine-protein kinase BTK (Homo sapiens) (UniProt Q06187); details: Compound concentration 1000.0 nM
[7] = biological target: Calcium/calmodulin-dependent protein kinase type 1B (Homo sapiens) (UniProt Q6P2M8); details: Compound concentration 1000.0 nM
[8] = biological target: Cyclin-dependent kinase 7 (Homo sapiens) (UniProt P50613); details: Compound concentration 1000.0 nM
[9] = biological target: Macrophage colony-stimulating factor 1 receptor (Homo sapiens) (UniProt P07333); details: Compound concentration 1000.0 nM
[10] = biological target: Casein kinase I isoform alpha (Homo sapiens) (UniProt P48729); details: Compound concentration 1000.0 nM
[11] = biological target: Casein kinase I isoform gamma-1 (Homo sapiens) (UniProt Q9HCP0); details: Compound concentration 1000.0 nM
[12] = biological target: Megakaryocyte-associated tyrosine-protein kinase (Homo sapiens) (UniProt P42679); details: Compound concentration 1000.0 nM
[13] = system: Epidermal growth factor receptor (Homo sapiens), P00533 [G719C]; details: Compound concentration 1000.0 nM
[14] = system: Receptor-type tyrosine-protein kinase FLT3 (Homo sapiens), P36888 [UNDEFINED MUTATION]; details: Compound concentration 1000.0 nM
[15] = system: Receptor-type tyrosine-protein kinase FLT3 (Homo sapiens), P36888 [K663Q]; details: Compound concentration 1000.0 nM
[16] = biological target: Beta-adrenergic receptor kinase 1 (Homo sapiens) (UniProt P25098); details: Compound concentration 1000.0 nM
[17] = system: Mast/stem cell growth factor receptor Kit (Homo sapiens), P10721 [V559D,T670I]; details: Compound concentration 1000.0 nM
[18] = biological target: Mast/stem cell growth factor receptor Kit (Homo sapiens) (UniProt P10721); details: Compound concentration 1000.0 nM
[19] = biological target: Serine/threonine-protein kinase LATS2 (Homo sapiens) (UniProt Q9NRM7); details: Compound concentration 1000.0 nM
[20] = biological target: Serine/threonine-protein kinase STK11 (Homo sapiens) (UniProt Q15831); details: Compound concentration 1000.0 nM
[21] = biological target: Leukocyte tyrosine kinase receptor (Homo sapiens) (UniProt P29376); details: Compound concentration 1000.0 nM
[22] = biological target: Maternal embryonic leucine zipper kinase (Homo sapiens) (UniProt Q14680); details: Compound concentration 1000.0 nM
[23] = biological target: Myosin light chain kinase, smooth muscle (Homo sapiens) (UniProt Q15746); details: Compound concentration 1000.0 nM
[24] = biological target: Serine/threonine-protein kinase 38 (Homo sapiens) (UniProt Q15208); details: Compound concentration 1000.0 nM
[25] = biological target: Serine/threonine-protein kinase Nek1 (Homo sapiens) (UniProt Q96PY6); details: Compound concentration 1000.0 nM
[26] = biological target: Serine/threonine-protein kinase Nek10 (Homo sapiens) (UniProt Q6ZWH5); details: Compound concentration 1000.0 nM
[27] = biological target: Serine/threonine-protein kinase Nek4 (Homo sapiens) (UniProt P51957); details: Compound concentration 1000.0 nM
[28] = biological target: Serine/threonine-protein kinase PAK 1 (Homo sapiens) (UniProt Q13153); details: Compound concentration 1000.0 nM
[29] = biological target: Serine/threonine-protein kinase PAK 4 (Homo sapiens) (UniProt O96013); details: Compound concentration 1000.0 nM
[30] = biological target: 3-phosphoinositide-dependent protein kinase 1 (Homo sapiens) (UniProt O15530); details: Compound concentration 1000.0 nM
[31] = biological target: cAMP-dependent protein kinase catalytic subunit alpha (Homo sapiens) (UniProt P17612); details: Compound concentration 1000.0 nM
[32] = biological target: Serine/threonine-protein kinase PLK2 (Homo sapiens) (UniProt Q9NYY3); details: Compound concentration 1000.0 nM
[33] = biological target: Serine/threonine-protein kinase RIO1 (Homo sapiens) (UniProt Q9BRS2); details: Compound concentration 1000.0 nM
[34] = biological target: Receptor-interacting serine/threonine-protein kinase 1 (Homo sapiens) (UniProt Q13546); details: Compound concentration 1000.0 nM
[35] = biological target: Ribosomal protein S6 kinase alpha-4 (Homo sapiens) (UniProt O75676); details: Compound concentration 1000.0 nM
[36] = biological target: Ribosomal protein S6 kinase alpha-2 (Homo sapiens) (UniProt Q15349); details: Compound concentration 1000.0 nM
[37] = biological target: SNF-related serine/threonine-protein kinase (Homo sapiens) (UniProt Q9NRH2); details: Compound concentration 1000.0 nM
[38] = biological target: Tyrosine-protein kinase receptor Tie-1 (Homo sapiens) (UniProt P35590); details: Compound concentration 1000.0 nM
[39] = biological target: Testis-specific serine/threonine-protein kinase 1 (Homo sapiens) (UniProt Q9BXA7); details: Compound concentration 1000.0 nM
[40] = biological target: Serine/threonine-protein kinase ULK3 (Homo sapiens) (UniProt Q6PHR2); details: Compound concentration 1000.0 nM
[41] = biological target: Tyrosine-protein kinase ZAP-70 (Homo sapiens) (UniProt P43403); details: Compound concentration 1000.0 nM
[42] = biological target: D(3) dopamine receptor (Homo sapiens) (UniProt P35462); details: Compound concentration 10.0 uM
[43] = biological target: D(1B) dopamine receptor (Homo sapiens) (UniProt P21918); details: Compound concentration 10.0 uM
[44] = biological target: GABA-A receptor; anion channel (Rattus norvegicus) (UniProt O09028+P15431+P18506+P18508+P19969+P20236+P23574+P23576+P28471+P28473+P30191+P62813+P63079+P63138+Q91ZM7+Q9ES14); details: Compound concentration 10.0 uM

Mast/stem cell growth factor receptor Kit (Homo sapiens), sequence (P10721 whole entry): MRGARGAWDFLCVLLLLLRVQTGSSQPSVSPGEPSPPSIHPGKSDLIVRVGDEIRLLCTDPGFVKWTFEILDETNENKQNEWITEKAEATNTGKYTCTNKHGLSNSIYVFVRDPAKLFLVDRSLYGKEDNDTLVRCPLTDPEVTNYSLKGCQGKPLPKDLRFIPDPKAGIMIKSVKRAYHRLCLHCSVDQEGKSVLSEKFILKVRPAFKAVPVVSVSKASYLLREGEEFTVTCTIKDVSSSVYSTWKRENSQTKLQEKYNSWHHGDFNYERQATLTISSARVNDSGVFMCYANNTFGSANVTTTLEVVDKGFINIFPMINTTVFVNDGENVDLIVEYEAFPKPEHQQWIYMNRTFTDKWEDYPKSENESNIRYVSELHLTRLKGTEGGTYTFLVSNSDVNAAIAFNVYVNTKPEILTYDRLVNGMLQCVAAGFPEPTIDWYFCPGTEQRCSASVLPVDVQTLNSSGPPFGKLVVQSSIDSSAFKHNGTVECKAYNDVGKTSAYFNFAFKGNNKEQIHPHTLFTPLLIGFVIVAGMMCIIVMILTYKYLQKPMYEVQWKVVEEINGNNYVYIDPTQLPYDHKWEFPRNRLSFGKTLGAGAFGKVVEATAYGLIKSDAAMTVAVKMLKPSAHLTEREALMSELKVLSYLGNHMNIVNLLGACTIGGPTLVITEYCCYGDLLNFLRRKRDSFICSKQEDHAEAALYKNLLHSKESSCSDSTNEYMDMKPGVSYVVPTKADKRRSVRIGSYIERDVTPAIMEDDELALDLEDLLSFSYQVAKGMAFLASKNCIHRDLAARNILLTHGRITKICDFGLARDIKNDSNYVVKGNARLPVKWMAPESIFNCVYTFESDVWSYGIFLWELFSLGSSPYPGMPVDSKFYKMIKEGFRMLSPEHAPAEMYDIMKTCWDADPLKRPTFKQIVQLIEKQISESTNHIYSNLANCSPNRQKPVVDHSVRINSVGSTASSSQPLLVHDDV
Serine/threonine-protein kinase STK11 (Homo sapiens), sequence (Q15831 whole entry): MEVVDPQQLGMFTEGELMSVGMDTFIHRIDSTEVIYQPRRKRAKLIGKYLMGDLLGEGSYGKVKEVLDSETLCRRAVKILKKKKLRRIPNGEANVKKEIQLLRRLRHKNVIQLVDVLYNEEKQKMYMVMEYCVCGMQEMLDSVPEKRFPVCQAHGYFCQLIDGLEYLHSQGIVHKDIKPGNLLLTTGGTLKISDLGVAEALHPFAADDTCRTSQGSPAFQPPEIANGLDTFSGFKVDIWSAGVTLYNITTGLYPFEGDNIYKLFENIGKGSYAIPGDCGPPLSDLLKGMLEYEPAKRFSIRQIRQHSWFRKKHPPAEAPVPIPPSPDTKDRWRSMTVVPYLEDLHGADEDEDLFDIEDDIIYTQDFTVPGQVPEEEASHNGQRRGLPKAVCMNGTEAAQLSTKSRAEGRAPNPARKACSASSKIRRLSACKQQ
Beta-adrenergic receptor kinase 1 (Homo sapiens), sequence (P25098 whole entry): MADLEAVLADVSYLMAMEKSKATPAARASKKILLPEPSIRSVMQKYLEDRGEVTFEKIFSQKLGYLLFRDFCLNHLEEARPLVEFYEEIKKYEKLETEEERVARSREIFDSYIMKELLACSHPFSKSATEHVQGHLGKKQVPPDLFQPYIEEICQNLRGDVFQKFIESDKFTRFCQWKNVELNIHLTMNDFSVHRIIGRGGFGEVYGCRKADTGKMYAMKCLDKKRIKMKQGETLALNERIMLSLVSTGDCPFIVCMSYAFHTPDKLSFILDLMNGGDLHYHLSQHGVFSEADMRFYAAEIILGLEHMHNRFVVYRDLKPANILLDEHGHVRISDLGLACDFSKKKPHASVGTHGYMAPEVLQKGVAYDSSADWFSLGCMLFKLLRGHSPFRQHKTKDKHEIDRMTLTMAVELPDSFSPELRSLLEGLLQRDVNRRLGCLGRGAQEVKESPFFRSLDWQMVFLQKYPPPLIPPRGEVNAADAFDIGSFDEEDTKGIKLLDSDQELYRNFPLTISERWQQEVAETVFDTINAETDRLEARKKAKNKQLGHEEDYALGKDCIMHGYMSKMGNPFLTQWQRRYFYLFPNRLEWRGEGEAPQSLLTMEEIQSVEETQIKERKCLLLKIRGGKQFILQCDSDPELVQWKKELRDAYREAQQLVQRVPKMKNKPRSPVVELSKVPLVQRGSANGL
Tyrosine-protein kinase receptor Tie-1 (Homo sapiens), sequence (P35590 whole entry): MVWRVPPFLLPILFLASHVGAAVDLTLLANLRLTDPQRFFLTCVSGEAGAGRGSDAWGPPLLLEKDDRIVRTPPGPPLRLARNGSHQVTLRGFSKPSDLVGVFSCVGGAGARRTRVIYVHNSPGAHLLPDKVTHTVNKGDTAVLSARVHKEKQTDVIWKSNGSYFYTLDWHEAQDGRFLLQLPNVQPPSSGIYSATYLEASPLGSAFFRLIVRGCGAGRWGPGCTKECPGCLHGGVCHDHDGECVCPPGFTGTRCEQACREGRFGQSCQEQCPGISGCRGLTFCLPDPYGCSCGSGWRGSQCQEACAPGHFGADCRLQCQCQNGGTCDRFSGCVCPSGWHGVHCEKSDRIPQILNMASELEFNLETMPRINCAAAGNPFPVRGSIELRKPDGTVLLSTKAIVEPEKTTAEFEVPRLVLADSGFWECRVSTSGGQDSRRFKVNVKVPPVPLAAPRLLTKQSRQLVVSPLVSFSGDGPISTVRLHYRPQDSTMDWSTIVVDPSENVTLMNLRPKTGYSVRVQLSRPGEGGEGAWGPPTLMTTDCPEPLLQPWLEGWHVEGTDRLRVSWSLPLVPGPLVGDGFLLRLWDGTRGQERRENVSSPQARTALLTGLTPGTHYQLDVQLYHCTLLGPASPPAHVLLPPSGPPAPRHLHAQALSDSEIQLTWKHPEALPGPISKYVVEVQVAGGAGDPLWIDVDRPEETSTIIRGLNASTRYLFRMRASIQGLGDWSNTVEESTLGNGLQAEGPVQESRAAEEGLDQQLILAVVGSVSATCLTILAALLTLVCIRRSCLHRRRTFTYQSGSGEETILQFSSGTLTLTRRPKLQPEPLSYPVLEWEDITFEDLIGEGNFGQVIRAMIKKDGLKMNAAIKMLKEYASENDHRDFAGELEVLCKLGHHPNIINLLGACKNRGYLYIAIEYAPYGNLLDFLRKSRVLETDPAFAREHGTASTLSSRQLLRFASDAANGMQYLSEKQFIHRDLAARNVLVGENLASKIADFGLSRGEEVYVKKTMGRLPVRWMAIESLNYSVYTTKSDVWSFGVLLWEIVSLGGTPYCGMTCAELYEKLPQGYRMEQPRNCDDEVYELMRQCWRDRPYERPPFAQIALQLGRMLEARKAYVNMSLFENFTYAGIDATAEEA
Serine/threonine-protein kinase Nek4 (Homo sapiens), sequence (P51957 whole entry, looked up): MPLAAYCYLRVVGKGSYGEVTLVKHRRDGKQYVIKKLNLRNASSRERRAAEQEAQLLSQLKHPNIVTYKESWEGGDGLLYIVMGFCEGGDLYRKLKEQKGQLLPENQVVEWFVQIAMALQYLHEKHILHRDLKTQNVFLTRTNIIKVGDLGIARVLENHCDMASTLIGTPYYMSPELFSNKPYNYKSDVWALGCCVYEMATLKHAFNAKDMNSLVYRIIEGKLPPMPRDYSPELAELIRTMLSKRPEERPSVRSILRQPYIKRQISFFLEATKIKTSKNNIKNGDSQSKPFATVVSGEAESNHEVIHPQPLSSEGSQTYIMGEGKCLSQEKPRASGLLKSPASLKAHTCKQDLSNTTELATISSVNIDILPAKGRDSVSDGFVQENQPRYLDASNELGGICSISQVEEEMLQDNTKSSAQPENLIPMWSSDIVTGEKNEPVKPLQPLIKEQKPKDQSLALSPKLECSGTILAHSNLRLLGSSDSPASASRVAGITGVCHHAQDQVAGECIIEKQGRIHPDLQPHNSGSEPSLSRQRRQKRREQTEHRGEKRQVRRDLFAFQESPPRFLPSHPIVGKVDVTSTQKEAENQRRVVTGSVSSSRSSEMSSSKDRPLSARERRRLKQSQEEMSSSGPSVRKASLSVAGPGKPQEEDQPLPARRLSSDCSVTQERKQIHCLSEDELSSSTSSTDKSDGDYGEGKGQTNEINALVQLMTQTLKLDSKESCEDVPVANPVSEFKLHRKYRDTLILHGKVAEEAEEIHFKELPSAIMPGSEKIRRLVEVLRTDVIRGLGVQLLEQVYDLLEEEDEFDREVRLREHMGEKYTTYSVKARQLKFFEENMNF
Serine/threonine-protein kinase ULK3 (Homo sapiens), sequence (Q6PHR2 whole entry): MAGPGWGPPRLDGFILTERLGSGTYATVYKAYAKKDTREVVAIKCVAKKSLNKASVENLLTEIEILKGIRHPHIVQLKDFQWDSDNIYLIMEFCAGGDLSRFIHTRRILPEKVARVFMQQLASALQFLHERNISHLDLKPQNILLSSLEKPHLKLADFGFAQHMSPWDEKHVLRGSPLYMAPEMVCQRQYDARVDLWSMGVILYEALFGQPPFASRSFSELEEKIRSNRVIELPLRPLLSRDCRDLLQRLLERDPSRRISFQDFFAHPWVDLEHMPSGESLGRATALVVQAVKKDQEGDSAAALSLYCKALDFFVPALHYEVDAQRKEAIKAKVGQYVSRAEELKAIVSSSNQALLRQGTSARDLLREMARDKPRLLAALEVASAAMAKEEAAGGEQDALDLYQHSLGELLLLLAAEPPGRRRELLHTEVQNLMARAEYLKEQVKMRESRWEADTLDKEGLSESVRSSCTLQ
Testis-specific serine/threonine-protein kinase 1 (Homo sapiens), sequence (Q9BXA7 whole entry): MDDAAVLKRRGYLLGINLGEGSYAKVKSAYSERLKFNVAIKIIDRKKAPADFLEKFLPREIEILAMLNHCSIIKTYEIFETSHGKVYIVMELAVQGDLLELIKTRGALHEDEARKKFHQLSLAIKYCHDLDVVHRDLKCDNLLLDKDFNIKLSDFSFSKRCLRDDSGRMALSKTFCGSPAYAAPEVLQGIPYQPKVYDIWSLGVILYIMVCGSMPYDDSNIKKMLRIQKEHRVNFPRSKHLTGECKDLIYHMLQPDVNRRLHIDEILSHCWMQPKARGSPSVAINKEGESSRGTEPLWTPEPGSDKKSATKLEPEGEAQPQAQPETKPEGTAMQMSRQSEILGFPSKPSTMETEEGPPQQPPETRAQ
Mast/stem cell growth factor receptor Kit (Homo sapiens), P10721 [V559D,T670I], sequence (P10721 whole entry V559D/T670I): as the sequence (P10721 whole entry) above, with V559D, T670I counted along it

C[C@H](NC(=O)c1cnc2n1[C@](C)(Cc1ccc(C#N)cc1)C(=O)N2c1cc(Cl)c(F)c(Cl)c1)C(=O)NC1(c2ccccn2)CC1 [BI 1950]
inactive: residual activity [1] 100% | residual activity [2] 97% | residual activity [3] 100% | residual activity [4] 100% | residual activity [5] 100% | residual activity [6] 100% | residual activity [7] 83% | residual activity [8] 94% | residual activity [9] 100% | residual activity [10] 100% | residual activity [11] 99% | residual activity [12] 100% | residual activity [13] 100% | residual activity [14] 100% | residual activity [15] 100% | residual activity [16] 100% | residual activity [17] 100% | residual activity [18] 100% | residual activity [19] 100% | residual activity [20] 100% | residual activity [21] 100% | residual activity [22] 86% | residual activity [23] 100% | residual activity [24] 96% | residual activity [25] 59% | residual activity [26] 100% | residual activity [27] 100% | residual activity [28] 95% | residual activity [29] 100% | residual activity [30] 100% | residual activity [31] 100% | residual activity [32] 75% | residual activity [33] 100% | residual activity [34] 100% | residual activity [35] 63% | residual activity [36] 94% | residual activity [37] 100% | residual activity [38] 100% | residual activity [39] 79% | residual activity [40] 100% | residual activity [41] 100% | inhibition [42] -3.54% | inhibition [43] 14% | inhibition [44] -4.17%

C[C@@]1(Cc2ccc(C#N)cc2)C(=O)N(c2cc(Cl)cc(Cl)c2)c2ncc(C(=O)NC3(c4nc(C5CCC5)no4)CC3)n21 [BI 9446]
active: residual activity [25] 48% | residual activity [27] 12%
inactive: residual activity [1] 100% | residual activity [2] 89% | residual activity [3] 100% | residual activity [4] 100% | residual activity [5] 100% | residual activity [6] 100% | residual activity [7] 65% | residual activity [8] 100% | residual activity [9] 100% | residual activity [10] 100% | residual activity [11] 92% | residual activity [12] 100% | residual activity [13] 100% | residual activity [14] 100% | residual activity [15] 100% | residual activity [16] 100% | residual activity [17] 100% | residual activity [18] 100% | residual activity [19] 92% | residual activity [20] 100% | residual activity [21] 100% | residual activity [22] 89% | residual activity [23] 100% | residual activity [24] 100% | residual activity [26] 100% | residual activity [28] 99% | residual activity [29] 98% | residual activity [30] 100% | residual activity [31] 100% | residual activity [32] 98% | residual activity [33] 100% | residual activity [34] 100% | residual activity [35] 95% | residual activity [36] 99% | residual activity [37] 100% | residual activity [38] 100% | residual activity [39] 76% | residual activity [40] 100% | residual activity [41] 90% | inhibition [42] 9.55% | inhibition [43] 7.21% | inhibition [44] -8.68%
